Assay results as given in publication PMC9680484, “Synthesis, Biophysical Interaction of DNA/BSA, Equilibrium and Stopped-Flow Kinetic Studies, and Biological Evaluation of bis(2-Picolyl)amine-Based Nickel(II) Complex” (Biomimetics, 2022).
Where “and” joins values, the source holds several entries; their conditions need not be identical. Equal values may be shown once. Read-outs that look alike come from different tables or passages of the source.

Columns and labels:
BSA [1] = biological target: T1, BSA (Bos taurus, UniProt P02769); assay: BSA UV-vis absorption titration (Benesi-Hildebrand binding constant); set-up: species or system bovine; details: BSA UV absorption
Protocol: Interactions between the most common blood protein, serum albumin, and complexes have sparked a lot of interest recently because of their structural similarity to human serum albumin. To better understand the mechanism of interaction between BPA and its nickel(II) complex NiBPA with BSA, fluorescence quenching studies were carried out. BSA’s fluorescence is due to intrinsic protein characteristics, such as the presence of tryptophan and tyrosine residues. Variations in the emission spectra caused by protein conformational changes, subunit interaction, substrate binding, or denaturation are largely attributed to the tryptophan residue. As a result, BSA fluorescence behavior can provide valuable insight into protein structure, dynamics, and folding. Fluorescence titration experiments were performed at room temperature with BSA and different concentrations of BPA and NiBPA in the range 200–600 nm (λex. 280 nm). A slight red shift (40 percent, BPA; 65 percent, NiBPA; Figure 3) reduced the intensity of BSA fluorescence at 343 nm. The presence of the protein’s active site in a hydrophobic environment causes the redshift. […] The quenching mechanism can be set to either static or dynamic operation. […] The binding constants for BPA and NiBPA were calculated using Equation (1) and found to be 0.4 × 10^4 M^−1 and 0.82 × 10^4 M^−1, respectively (Table 1). […]

[2] = MTT cytotoxicity assay, normal cells; type: cell-based; details: normal liver (Wi38) cells, MTT, 24 h
E. faecalis = assay: Antibacterial MIC/MBC, E. faecalis; type: cell-based; set-up: MIC: unit not given here; details: Gram-positive
[3] = system: human liver cancer (HepG2) cell lines; assay: MTT cytotoxicity assay, liver cancer cells; type: cell-based; details: HepG2, MTT, 24 h
Protocol: Methyl thiazolyl tetrazolium (MTT) colorimetry [47] was used to assess the cytotoxicity of BPA and one for human liver cancer (HepG2) cell lines. MTT can be converted into formazan by living cells with an active metabolism, but this ability is lost in dying cells. Therefore, in this study, the MTT assay was used to determine how many viable cells there were. Before the investigated compounds were added, cells were cultured in 96-well flat-bottomed microtiter plates at a density of 1 × 10^4 cells/well (100 l/well) for 70 to 80 percent confluent cultures, and the cultures were then incubated at 37 °C and 5 percent CO2 for 24 h. The compounds were used in a range of concentrations (31.2, 62.5, 125.0, 250.0, 500.0, and 1000.0 g/mL), and the cells were cultured for 24 h. Then, 10 µl of the 12 mM MTT stock solution (5 mg/mL MTT in sterile PBS) was added to each well at the conclusion of the incubation period. After that, the plate was incubated at 37 °C for 4 h. […] On an ELISA reader, the absorbance at 570 nm was read (StatFax-2100, Awareness Technology, Inc., USA). The percentage of cells inhibited was calculated using: % CellInhibition=100−T−T0/C−T0 where T is the optical density of the test sample, To is the optical density at time zero, and C is the optical density of the control.

S. aureus = assay: Antibacterial MIC/MBC, S. aureus; type: cell-based; details: Gram-positive
Protocol: (§1) Several studies have shown that organic compound coordination with a metallic element results in significant changes in the biological activity of both the organic ligand and the metal. As a result, BPA and its nickel complex NiBPA were tested in vitro for antibacterial activity against Gram-positive (S. aureus and S epidermidis) and Gram-negative (P. mirabilis and E. coli) bacteria. Figure 10 depicts the antibacterial function of BPA and NiBPA as the diameter of the growth-inhibition region in millimeters. […] The MBC is identified by determining the lowest concentration of antibacterial agents that reduces the viability of the initial bacterial inoculum by 99.9%. The MIC or MBC strain was chosen based on the value agreed upon on two or more occasions. The antibiotic tobramycin (TOB) was used to control the situation. The inhibition zone, as well as the MIC and MBC data, leads to the following conclusions. […] This is explained by the metal ion’s polarity and cationic charge, as NiBPA has a cationic property with two positive charges. […] The interaction between Gram-negative bacteria and NiBPA was stronger than that of Gram-positive bacteria due to the higher negative charge on the cell surface, despite the presence of an outer membrane in Gram-negative bacteria (see Figure 11).

ct-DNA [4] = assay: Stopped-flow kinetics of ct-DNA binding
Protocol: (§2) The kinetics of protein and DNA binding was measured using an Applied KinetAsyst SF-61DX2 stopped-flow instrument. At 25 °C, equal volumes of compounds against protein and DNA solutions were rapidly mixed in the stopped-flow instrument. The binding reactions were studied using a 10-fold excess of the ligand BPA and NiBPA under pseudo-first-order conditions. For each experimental condition, all recorded rate constants were taken into account, from which the mean values of at least three independent kinetic runs were calculated.
(§3) Because many medicines with lower cellular toxicity have a slow DNA dissociation rate, several factors, such as the strength of binding and the drug’s affinity for DNA, as well as the kinetic stability of DNA-drug adducts, may contribute to antitumor effectiveness. The stopped-flow technique was used to study in-vitro protein/DNA binding to BPA and propose a mechanism in order to obtain such information. The kinetic traces were recorded at 265 nm within 100 s (BPA) and 5 s (NiBPA), respectively, to capture the interaction process with BSA. […] In the case of ct-DNA interaction, the kinetic traces were recorded at 290 nm, and both BPA and NiBPA followed a similar pattern since kinetic traces for BPA and NiBPA were collected within 100 s, covering the entire interaction process. […] Over the concentration range of BPA and NiBPA, the study of kinetic traces performed under pseudo-first-order conditions may be fitted to two kinetic phases (Figure 7) evaluated using the following Equation (3):(3) A=a1e^−kobs1t1+a2e^−kobs2t2+A0
The interaction process involves at least two steps, and the stopped-flow records the two kinetic phases as a fast binding (rate constant kobs1) followed by a slow first-order isomerization process (rate constant kobs2). […] Both kon and koff were used to calculate the equilibrium association constants Kaff [kon/koff M^−1] and the equilibrium dissociation constants Kd [koff/kon M]. […]

BSA [5] = biological target: T1, BSA; assay: BSA fluorescence quenching titration (Stern-Volmer / Scatchard); type: binding, bovine; details: for KSV: Stern-Volmer constant
Protocol: The excitation and emission wavelengths of BSA at 280 nm were monitored in protein binding studies using BSA ([…]) solution prepared in Tris-HCl buffer (pH 7.5), and the solution was stored in a dark place at 4 °C.
Interactions between the most common blood protein, serum albumin, and complexes have sparked a lot of interest recently because of their structural similarity to human serum albumin. To better understand the mechanism of interaction between BPA and its nickel(II) complex NiBPA with BSA, fluorescence quenching studies were carried out. BSA’s fluorescence is due to intrinsic protein characteristics, such as the presence of tryptophan and tyrosine residues. Variations in the emission spectra caused by protein conformational changes, subunit interaction, substrate binding, or denaturation are largely attributed to the tryptophan residue. As a result, BSA fluorescence behavior can provide valuable insight into protein structure, dynamics, and folding. Fluorescence titration experiments were performed at room temperature with BSA and different concentrations of BPA and NiBPA in the range 200–600 nm (λex. 280 nm). A slight red shift (40 percent, BPA; 65 percent, NiBPA; Figure 3) reduced the intensity of BSA fluorescence at 343 nm. The presence of the protein’s active site in a hydrophobic environment causes the redshift. […] The quenching mechanism can be set to either static or dynamic operation. Dynamic quenching occurs when the fluorophore and the quencher come into contact during the excited state’s transient existence, whereas static quenching is caused by the formation of a complex between the quencher and the fluorophore in the ground state. BSA (fluorophore) has a UV-vis absorption spectrum that can be used to investigate the type of quenching quickly and easily. […] The binding constants for BPA and NiBPA were calculated using Equation (1) and found to be 0.4 × 10^4 M^−1 and 0.82 × 10^4 M^−1, respectively (Table 1). […] Furthermore, the findings are in line with previous research on related compounds.
The Kq value is much higher than the 2 × 10^10 M^−1s^−1 maximum scatters collision quenching constant of quenchers with BSA (Kq = Ksv/τ0), where KSV is the Stern–Volmer constant and τ0 is the average lifetime of the BSA in the absence of the quencher (τ0 = 10 ns). This supports the idea of a static quenching mechanism. […] It is second order in [Q] and thus leads to upward curvy plots of I0/I versus [Q] at higher [Q].
The quenching constant (Kq) was calculated using the Stern–Volmer and Scatchard equation and plotted as I0/I vs. [Q] to better understand the quenching process (Figure 3). In addition, Scatchard Equation (2) was used to calculate the equilibrium binding constant:log[(I0 − I)/I] = log Kbin + n log [Q](2) where Kbin is the compound’s BSA binding constant and n is the number of binding sites. From the log (I0 − I)/I vs. log [Q] plot (Figure 5), the binding constant (Kbin) and the number of binding sites (n) have been calculated (Table 1). The estimated value of n (∼1) for BPA and NiBPA strongly supported the existence of a single binding site in BSA.

E. coli = assay: Antibacterial MIC/MBC, E. coli; type: cell-based; details: Gram-negative
Protocol: as §1

P. aeruginosa = assay: Antibacterial MIC/MBC, P. aeruginosa; type: cell-based; set-up: MIC: unit not given here; details: Gram-negative
BSA [6] = biological target: T1, BSA; assay: Stopped-flow kinetics of BSA binding; set-up: species or system bovine; details: BSA
Protocol: as §2, §3
The interaction process involves at least two steps, and the stopped-flow records the two kinetic phases as a fast binding (rate constant kobs1) followed by a slow first-order isomerization process (rate constant kobs2). […] Both kon and koff were used to calculate the equilibrium association constants Kaff [kon/koff M^−1] and the equilibrium dissociation constants Kd [koff/kon M].
The difference between the free energy, G, of BSA molecules alone in the solution and when bound together is related to the equilibrium dissociation constant, Kd1. Equation (4) gives the binding free energy change Gbind. (4) ΔGbind=RT·ln(Kd)

ct-DNA [7] = assay: ct-DNA electronic absorption titration; type: binding; details: phosphate buffer pH 7.2
Protocol: Electronic absorption measurements were performed with a constant concentration of ctDNA and increasing concentrations of BPA and NiBPA (Na-phosphate buffer solution, pH 7.2). […] Intrinsic fluorescence was measured with the ct-DNA solution at the excitation wavelength (ex, 330), and emission spectra were recorded at 550–700 nm after aliquot addition of BPA and NiBPA.
Absorption titration information was depicted in Figure 6 to understand the mode of interaction of complexes with ct-DNA. Increased addition of a solution of BPA to a solution of ct-DNA causes hyperchromic for the band at 264 nm with a blue shift of 5 nm (259 nm), as shown in the absorption titration spectrum (Figure 6). The band at 278 nm, on the other hand, was hypochromic with a small blue shift of 2 nm (276 nm). The presence of […] in the medium was indicated by the isosbestic point in the titration curve at 274 nm. […] The hydrogen bonds formed with the –OH and SH groups of BPA and NiBPA are caused by the presence of many accessible hydrogen binding sites in the DNA major and minor grooves. The binding constants for BPA (0.16 × 10^5 M^−1) and NiBPA (0.52 × 10^5 M^−1) are similar to those of well-known groove binding rather than classical intercalation, implying that NiBPA interacts with ct-DNA much more strongly than BPA under investigation.

## O.[Cl][Ni][Cl].c1ccc(CNCc2ccccn2)nc1 [NiBPA, [(BPA)NiCl2(H2O)]]
BSA [1]
  binding constant (BSA): 8200 M⁻¹
[2]
  IC50: 120.0 ± 0.5 µg/mL
E. faecalis
  MBC: 80.0 µg/mL
  MIC: 43.0
[3]
  IC50: 75.0 ± 0.5 µg/mL
S. aureus
  MBC: 76.0 µg/mL
ct-DNA [4]; 1st step, 25 °C
  Ka1 (k1/k−1): 53.6 M⁻¹
ct-DNA [4]; 1st step, 25 °C, read-out: Kd1 (k−1/k1)
  Kd: 19 mM
ct-DNA [4]; 2nd step, 25 °C
  K2 (2nd step): 0.23 ± 0.01 M⁻¹ s⁻¹
  Ka2 (k2/k−2): 39 M⁻¹ and 39.0 M⁻¹
  k−2: 5.9 ± 0.5 10^−3s^−1
ct-DNA [4]; 25 °C
  k1 (1st step, second-order association constant): 19.3 ± 2.3 M⁻¹ s⁻¹
  k−1 (1st step, first-order dissociation constant): 0.36 ± 0.1 s⁻¹
ct-DNA [4]; overall
  Ka (overall binding): 2077 M⁻¹
BSA [5]; BSA binding constant from Scatchard equation
  Kbin: 0.90 10^4 M^−1
BSA [5]; Scatchard plot log (I0 − I)/I vs. log [Q]
  n (number of binding sites): 1.3
BSA [5]
  KSV: 7000 M⁻¹
BSA [5]; BSA fluorescence, λex 280 nm, room temperature
  KSV: 0.70 10^4 M^−1
BSA [5]; quenching constant, Kq = Ksv/τ0, τ0 = 10 ns
  Kq: 0.70 10^12 M^−1s^−1
BSA [5]; λex 280 nm, room temperature
  reduction of BSA fluorescence intensity at 343 nm: 65%
E. coli
  MBC: 63.0 µg/mL
P. aeruginosa
  MBC: 70.0 µg/mL
  MIC: 35.0
BSA [6]; 1st step, 25 °C
  Ka1 (k1/k−1): 7.3 M⁻¹
BSA [6]; 1st step, ΔGbind = RT·ln(Kd)
  ΔG1: -1.22 kcal/mol
BSA [6]; 2nd step
  ΔG2: −8.3 kJmol^−1
BSA [6]; 2nd step, 25 °C
  k−2: 620 ± 6 10^−3s^−1
BSA [6]; 2nd step, 25 °C, irreversible step for BPA
  K2 (2nd step): 2.0 ± 0.2 M⁻¹ s⁻¹
BSA [6]; 2nd step, 25 °C, listed as 1
  Ka2: 3.2 M⁻¹
BSA [6]; 25 °C
  k1 (1st step, second-order association constant): 53.6 ± 9.0 M⁻¹ s⁻¹
  k−1 (1st step, first-order dissociation constant): 7.3 ± 0.3 s⁻¹
BSA [6]; overall
  Ka (overall binding): 30.3 M⁻¹
  ΔG (overall reaction): −8.4 kJmol^−1
BSA [6]; overall, read-out: Kd (overall binding)
  Kd: 34 mM
BSA [6]; overall, read-out: Kd (overall reaction)
  Kd: 32.3 mM
ct-DNA [7]
  binding constant (ct-DNA): 52000 M⁻¹
